Five compounds from ChEMBL document CHEMBL1152009, “Synthesis and biological activity of some 3-acryloxymethyl cephalosporins” (Bioorg Med Chem Lett, 1995) can be followed below.

One data set concerns Proteus mirabilis. In words: In vitro antibacterial activity against Proteus mirabilis C977. The data set is classed as functional.
The test system of data set [1] is Escherichia coli. Kind of data set: In vitro antibacterial activity against Escherichia coli 1077 (resistance due to beta-lactamase). The data set is classed as functional.
For a further data set, the system named is Streptococcus agalactiae. Kind of data set: In vitro antibacterial activity against Streptococcus agalactiae 2798. The data set is classed as functional.
The test system of the next data set is Streptococcus pyogenes. In words: In vitro antibacterial activity against Streptococcus pyogenes CN10. The data set is classed as functional.
Data set [2] concerns Staphylococcus aureus. In words: In vitro antibacterial activity against Staphylococcus aureus Oxford. The data set is classed as functional.
The test system of data set [3] is Staphylococcus aureus. In words: In vitro antibacterial activity against Staphylococcus aureus Russell (resistance due to beta-lactamase). In kind it is functional.
For the next data set, the system named is Morganella morganii. Kind of data set: In vitro antibacterial activity against Morganella morganii T361. In kind it is functional.
Data set [4] relates to Pseudomonas aeruginosa. In words: In vitro antibacterial activity against Pseudomonas aeruginosa 10662. In kind it is functional.
The test system of data set [5] is Escherichia coli. In words: In vitro antibacterial activity against Escherichia coli ESS. The data set is classed as functional.
For data set [6], the system named is Staphylococcus aureus. Kind of data set: In vitro antibacterial activity against Staphylococcus aureus MB9. The data set is classed as functional.
For data set [7], the system named is Escherichia coli. In words: In vitro antibacterial activity against Escherichia coli JT425 (resistance due to beta-lactamase). In kind it is functional.
The next data set relates to Moraxella catarrhalis. In words: In vitro antibacterial activity against Branhamella catarrhalis Ravasio (resistance due to beta-lactamase). The data set is classed as functional.
Data set [8] concerns Staphylococcus epidermidis. In words: In vitro antibacterial activity against Staphylococcus epidermidis PHLN20. In kind it is functional.
Data set [9] has as its system Staphylococcus aureus. In words: In vitro antibacterial activity against Staphylococcus aureus V573 (resistance due to modified target enzyme). The data set is classed as functional.
The subject of data set [10] is Haemophilus influenzae. Kind of data set: In vitro antibacterial activity against Haemophilus influenzae Q1. The data set is classed as functional.
Data set [11] deals with Enterococcus faecalis. Kind of data set: In vitro antibacterial activity against Streptococcus faecalis I. The data set is classed as functional.
Another data set deals with Klebsiella pneumoniae. In words: In vitro antibacterial activity against Klebsiella pneumoniae T767. The data set is classed as functional.
Data set [12] has as its system Streptococcus pneumoniae. In words: In vitro antibacterial activity against Streptococcus pneumoniae 1716. In kind it is functional.
The test system of data set [13] is Escherichia coli. Kind of data set: In vitro antibacterial activity against Escherichia coli 10418. In kind it is functional.
Data set [14] has as its system Streptococcus pneumoniae. Kind of data set: In vitro antibacterial activity against Streptococcus pneumoniae PU7 (resistance due to modified target enzyme. In kind it is functional.
For data set [15], the system named is Enterococcus faecalis. In words: In vitro antibacterial activity against S. faecalis I. The data set is classed as functional.
Data set [16] is described as follows: Half-life in a rat liver homogenate preparation. In kind it is ADME.
Data set [17] relates to Haemophilus influenzae. In words: In vitro antibacterial activity against Haemophilus influenzae NEMC (resistance due to beta-lactamase). The data set is classed as functional.
Data set [18] deals with Staphylococcus aureus. Kind of data set: In vitro antibacterial activity against Staphylococcus aureus Russell (resistance due to beta-lactamase. In kind it is functional.
For data set [19], the system named is Pseudomonas aeruginosa. Kind of data set: In vitro antibacterial activity was determined against Pseudomonas aeruginosa 10662. The data set is classed as functional.
Data set [20] has as its system Streptococcus pneumoniae. In words: In vitro antibacterial activity against Streptococcus pneumoniae PU7 (resistance due to modified target enzyme). In kind it is functional.
Data set [21] deals with Staphylococcus aureus. In words: In vitro antibacterial activity against S. aureus MB9. The data set is classed as functional.

In brackets after ≈: the same amount, converted by molar mass.

`C/C=C(\C)C(=O)OCC1=C(C(=O)O)N2C(=O)[C@@H](NC(=O)/C(=N\O)c3cnc(N)s3)[C@H]2SC1`: the MIC is 0.25 µg/mL (≈ 0.519 µM) against Proteus mirabilis; 0.25 µg/mL (≈ 0.519 µM) in the data set on Escherichia coli [1]; at most 0.03 µg/mL against Streptococcus agalactiae; at most 0.03 µg/mL against Streptococcus pyogenes; 0.25 µg/mL (≈ 0.519 µM) with Staphylococcus aureus [2]; 0.5 µg/mL (≈ 1.04 µM) against Staphylococcus aureus [3]. The MIC against Morganella morganii is 0.12 µg/mL (≈ 0.249 µM); against Pseudomonas aeruginosa [4] it was over 64 µg/mL; in the data set on Escherichia coli [5] it was at most 0.03 µg/mL; against Staphylococcus aureus [6], 0.5 µg/mL (≈ 1.04 µM); in the data set on Escherichia coli [7], 0.5 µg/mL (≈ 1.04 µM); in the data set with Moraxella catarrhalis, 4 µg/mL (≈ 8.31 µM). For the same compound, the MIC in data set [8] was 0.25 µg/mL (≈ 0.519 µM); against Staphylococcus aureus [9], 8 µg/mL (≈ 16.6 µM); in the data set with Haemophilus influenzae [10], at most 0.03 µg/mL; against Enterococcus faecalis [11], over 64 µg/mL; with Klebsiella pneumoniae it was 0.5 µg/mL (≈ 1.04 µM); against Streptococcus pneumoniae [12], at most 0.03 µg/mL. Further, the MIC was 0.12 µg/mL (≈ 0.249 µM) against Escherichia coli [13] and 0.5 µg/mL (≈ 1.04 µM) against Streptococcus pneumoniae [14].

By half-life is commonly meant how long it takes for the measured level to halve. For the compound `CC(=O)OCC1=C(C(=O)O)N2C(=O)[C@@H](NC(=O)/C(=N\O)c3cnc(N)s3)[C@H]2SC1`, the MIC in the data set with Proteus mirabilis was determined as 0.06 µg/mL (≈ 0.136 µM); against Escherichia coli [1], 0.06 µg/mL (≈ 0.136 µM); against Streptococcus agalactiae, 0.06 µg/mL (≈ 0.136 µM); against Enterococcus faecalis [15] it was 4 µg/mL (≈ 9.06 µM); with Staphylococcus aureus [2], 0.25 µg/mL (≈ 0.566 µM); in the data set with Haemophilus influenzae [17], 0.06 µg/mL (≈ 0.136 µM). For the same compound, the MIC was 0.5 µg/mL (≈ 1.13 µM) in the data set on Staphylococcus aureus [3]; 0.06 µg/mL (≈ 0.136 µM) with Morganella morganii; over 32 µg/mL against Pseudomonas aeruginosa [4]; under 0.03 µg/mL in the data set on Escherichia coli [5]; 0.5 µg/mL (≈ 1.13 µM) in the data set on Staphylococcus aureus [6]; 1 µg/mL (≈ 2.27 µM) with Escherichia coli [7]. In addition, the MIC is 2 µg/mL (≈ 4.53 µM) against Moraxella catarrhalis; 0.25 µg/mL (≈ 0.566 µM) in data set [8]; over 32 µg/mL in the data set on Staphylococcus aureus [9]; 0.12 µg/mL (≈ 0.272 µM) in the data set on Haemophilus influenzae [10]; 0.06 µg/mL (≈ 0.136 µM) against Klebsiella pneumoniae; 0.06 µg/mL (≈ 0.136 µM) against Streptococcus pneumoniae [12]. Also, the MIC against Escherichia coli [13] was 0.06 µg/mL (≈ 0.136 µM); against Streptococcus pneumoniae [14], 2 µg/mL (≈ 4.53 µM). The same compound showed a half-life in [16] of at most 15 min.

In the case of `CC(C)=CC(=O)OCC1=C(C(=O)O)N2C(=O)[C@@H](NC(=O)/C(=N\O)c3cnc(N)s3)[C@H]2SC1`, the MIC in the data set on Proteus mirabilis is 0.25 µg/mL (≈ 0.519 µM); against Escherichia coli [1], 0.25 µg/mL (≈ 0.519 µM); in the data set on Streptococcus agalactiae, under 0.03 µg/mL; against Streptococcus pyogenes, under 0.03 µg/mL; with Staphylococcus aureus [2], 0.25 µg/mL (≈ 0.519 µM); in the data set with Haemophilus influenzae [17] it was under 0.03 µg/mL. Also, the MIC against Morganella morganii is 0.25 µg/mL (≈ 0.519 µM); with Escherichia coli [5], under 0.03 µg/mL; against Staphylococcus aureus [6] it was 0.5 µg/mL (≈ 1.04 µM); against Staphylococcus aureus [18], 0.5 µg/mL (≈ 1.04 µM); against Escherichia coli [7] it was 0.5 µg/mL (≈ 1.04 µM); with Moraxella catarrhalis it was 4 µg/mL (≈ 8.31 µM). In addition, the MIC in the data set with Pseudomonas aeruginosa [19] was over 64 µg/mL; in data set [8], 0.25 µg/mL (≈ 0.519 µM); in the data set on Staphylococcus aureus [9] it was 8 µg/mL (≈ 16.6 µM); against Haemophilus influenzae [10] it was 0.06 µg/mL (≈ 0.125 µM); in the data set with Enterococcus faecalis [11], 8 µg/mL (≈ 16.6 µM); in the data set with Klebsiella pneumoniae, 0.5 µg/mL (≈ 1.04 µM). Also, the MIC is under 0.03 µg/mL against Streptococcus pneumoniae [12], 0.06 µg/mL (≈ 0.125 µM) in the data set with Escherichia coli [13] and 0.5 µg/mL (≈ 1.04 µM) in the data set on Streptococcus pneumoniae [20].

Regarding `C=C(C)C(=O)OCC1=C(C(=O)O)N2C(=O)[C@@H](NC(=O)/C(=N\O)c3cnc(N)s3)[C@H]2SC1`, the MIC with Proteus mirabilis is 0.06 µg/mL (≈ 0.128 µM); in the data set on Staphylococcus aureus [21], 0.25 µg/mL (≈ 0.535 µM); with Escherichia coli [1], 0.06 µg/mL (≈ 0.128 µM); in the data set on Streptococcus agalactiae, under 0.03 µg/mL; with Streptococcus pyogenes it was under 0.03 µg/mL; against Staphylococcus aureus [2], 0.06 µg/mL (≈ 0.128 µM). Moreover, the MIC with Staphylococcus aureus [3] was 0.25 µg/mL (≈ 0.535 µM); with Morganella morganii it was 0.06 µg/mL (≈ 0.128 µM); against Pseudomonas aeruginosa [4], 64 µg/mL (≈ 137 µM); against Escherichia coli [5], under 0.03 µg/mL; in the data set on Escherichia coli [7], 0.12 µg/mL (≈ 0.257 µM); in the data set with Moraxella catarrhalis it was 0.5 µg/mL (≈ 1.07 µM). Besides, the MIC is 0.06 µg/mL (≈ 0.128 µM) in data set [8]; 2 µg/mL (≈ 4.28 µM) in the data set with Staphylococcus aureus [9]; under 0.03 µg/mL in the data set on Haemophilus influenzae [10]; 32 µg/mL (≈ 68.5 µM) against Enterococcus faecalis [11]; 0.12 µg/mL (≈ 0.257 µM) against Klebsiella pneumoniae; under 0.03 µg/mL against Streptococcus pneumoniae [12]. Besides, the MIC was under 0.03 µg/mL in the data set on Escherichia coli [13] and 1 µg/mL (≈ 2.14 µM) in the data set on Streptococcus pneumoniae [14].

With `CO/N=C(\C(=O)N[C@@H]1C(=O)N2C(C(=O)O)=C(COC(C)=O)CS[C@H]12)c1csc(N)n1` [CEFOTAXIME], the MIC is under 0.03 µg/mL in the data set on Proteus mirabilis; 0.12 µg/mL (≈ 0.263 µM) in the data set with Streptococcus agalactiae; over 64 µg/mL in the data set with Enterococcus faecalis [15]; under 0.03 µg/mL with Streptococcus pyogenes; 2 µg/mL (≈ 4.39 µM) in the data set on Staphylococcus aureus [2]; 2 µg/mL (≈ 4.39 µM) with Staphylococcus aureus [3]. Further, the MIC against Morganella morganii was 2 µg/mL (≈ 4.39 µM); with Pseudomonas aeruginosa [4], 16 µg/mL (≈ 35.1 µM); against Escherichia coli [5], under 0.03 µg/mL; against Staphylococcus aureus [6], 4 µg/mL (≈ 8.78 µM); in the data set with Escherichia coli [7], 0.5 µg/mL (≈ 1.1 µM); in the data set with Moraxella catarrhalis, 0.25 µg/mL (≈ 0.549 µM). The MIC in data set [8] was 1 µg/mL (≈ 2.2 µM); in the data set on Staphylococcus aureus [9], 32 µg/mL (≈ 70.3 µM); against Haemophilus influenzae [10], under 0.03 µg/mL; against Klebsiella pneumoniae it was 0.06 µg/mL (≈ 0.132 µM); with Streptococcus pneumoniae [12] it was under 0.03 µg/mL; in the data set with Escherichia coli [13], under 0.03 µg/mL. Further, the MIC against Streptococcus pneumoniae [14] was found to be 2 µg/mL (≈ 4.39 µM). In addition, the half-life in data set [16] is at most 15 min.
